Legend:
Format in all cases: in vivo
Setaria faberi (SETFA) [1] = experiment: Pre-emergence biological efficacy (percentage damage); conditions: dose 1,000 g/ha, evaluated after 13 days, 100=total damage, 0=no damage; for pest or weed control at 1000 g/ha: Setaria faberi, 312 h
Outline: (§1)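 Seeds were sown in standard soil in pots and, one day later, sprayed with test compound at 250 or 1000 g/ha in acetone/water (50:50) with 0.5% Tween 20. Plants grew in a glasshouse at 24/16 °C day/night, 14 h light, 65% humidity; damage was scored after 13 days (0 = none, 100 = total).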

[2] = system: Amaranthus retoflexus (AMARE); experiment: as above; conditions: dose 1,000 g/ha, evaluated after 13 days, 100=total damage, 0=no damage; for pest or weed control at 1000 g/ha: Amaranthus retroflexus, 312 h
Outline: as §1

[3] = system: Alopecurus myosuroides (ALOMY); experiment: as above; conditions: dose 1,000 g/ha, evaluated after 13 days, 100=total damage, 0=no damage; for pest or weed control at 1000 g/ha: Alopecurus myosuroides, 312 h
Outline: as §1

[4] = system: Echinochloa crus-galli (ECHCG); experiment: as above; conditions: dose 1,000 g/ha, evaluated after 13 days, 100=total damage, 0=no damage; for pest or weed control at 1000 g/ha: Echinochloa crus-galli, 312 h
Outline: as §1

[5] = system: Ipomea hederaceae (IPOHE); experiment: as above; conditions: dose 1,000 g/ha, evaluated after 13 days, 100=total damage, 0=no damage; for pest or weed control at 1000 g/ha: Ipomoea hederacea, 312 h
Outline: as §1

Solanum nigrum (SOLNI) [6] = experiment: as above; conditions: dose 1,000 g/ha, evaluated after 13 days, 100=total damage, 0=no damage; for pest or weed control at 1000 g/ha: Solanum nigrum, 312 h
Outline: as §1

Setaria faberi (SETFA) [7] = experiment: Post-emergence biological efficacy (percentage damage); conditions: dose 1,000 g/ha, evaluated after 13 days, 100=total damage, 0=no damage; for pest or weed control at 1000 g/ha: Setaria faberi, 312 h
Outline: (§2)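 Applied rates: 250 or 1000 g/ha, sprayed from acetone/water (50:50) with 0.5% Tween 20 onto plants 8 days after sowing. Visual damage rating 13 days later on a 0–100 scale.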

[8] = system: Amaranthus retoflexus (AMARE); experiment: as above; conditions: dose 1,000 g/ha, evaluated after 13 days, 100=total damage, 0=no damage; for pest or weed control at 1000 g/ha: Amaranthus retroflexus, 312 h
Outline: as §2

[9] = system: Alopecurus myosuroides (ALOMY); experiment: as above; conditions: dose 1,000 g/ha, evaluated after 13 days, 100=total damage, 0=no damage; for pest or weed control at 1000 g/ha: Alopecurus myosuroides, 312 h
Outline: as §2

[10] = system: Echinochloa crus-galli (ECHCG); experiment: as above; conditions: dose 1,000 g/ha, evaluated after 13 days, 100=total damage, 0=no damage; for pest or weed control at 1000 g/ha: Echinochloa crus-galli, 312 h
Outline: as §2

[11] = system: Ipomea hederaceae (IPOHE); experiment: as above; conditions: dose 1,000 g/ha, evaluated after 13 days, 100=total damage, 0=no damage; for pest or weed control at 1000 g/ha: Ipomoea hederacea, 312 h
Outline: as §2

Solanum nigrum (SOLNI) [12] = experiment: as above; conditions: dose 1,000 g/ha, evaluated after 13 days, 100=total damage, 0=no damage; for pest or weed control at 1000 g/ha: Solanum nigrum, 312 h
Outline: as §2

| SMILES | pest or weed control at 1000 g/ha (Setaria faberi (SETFA) [1]) | pest or weed control at 1000 g/ha [2] | pest or weed control at 1000 g/ha [3] | pest or weed control at 1000 g/ha [4] | pest or weed control at 1000 g/ha [5] | pest or weed control at 1000 g/ha (Solanum nigrum (SOLNI) [6]) | pest or weed control at 1000 g/ha (Setaria faberi (SETFA) [7]) | pest or weed control at 1000 g/ha [8] | pest or weed control at 1000 g/ha [9] | pest or weed control at 1000 g/ha [10] | pest or weed control at 1000 g/ha [11] | pest or weed control at 1000 g/ha (Solanum nigrum (SOLNI) [12]) | further results |
| --- | --- | --- | --- | --- | --- | --- | --- | --- | --- | --- | --- | --- | --- |
| C=Cc1c(N)nc(-c2ccc(Cl)c(N(C)C)c2F)nc1C(=O)OC [Compound 33-61] | 10% | 50% | 0% | 0% | 40% | 30% | 30% | 70% | 20% | 20% | 90% | 80% | – |
| C=C(C)c1c(N)nc(-c2ccc(Cl)c(N(C)C)c2F)nc1C(=O)OC [Compound 33-64, 4-Amino-2-(4-chloro-3-dimethylamino-2-fluorophenyl)-6-methoxycarbonyl-5-(prop-1-en-2-yl)-pyrimidine] | 0% | 0% | 0% | 0% | 0% | 0% | 0% | 10% | 0% | 0% | 10% | 20% | – |
| C=C(OCC)c1c(N)nc(-c2ccc(Cl)c(N(C)C)c2F)nc1C(=O)OC [Compound 33-67, 4-Amino-2-(4-chloro-3-dimethylamino-2-fluorophenyl)-5-(1-ethoxyethenyl)-6-methoxycarbonyl-pyrimidine] | 0% | 0% | 0% | 0% | 10% | 0% | 0% | 10% | 0% | 0% | 20% | 40% | – |
| C=Cc1c(N)nc(-c2ccc(Cl)c(N(C)C)c2F)nc1C(=O)OCC [Compound 33-101, 4-amino-2-(4-chloro-3-dimethylamino-2-fluorophenyl)-5-ethenyl-6-ethoxycarbonyl-pyrimidine] | 90% | 100% | 60% | 90% | 30% | 90% | 80% | 100% | 80% | 90% | 60% | 90% | – |
| C=Cc1c(N)nc(-c2ccc(Cl)c(N(C)C)c2F)nc1C(=O)OC(C)C [Compound 33-306, 4-Amino-2-(4-chloro-3-dimethylamino-2-fluorophenyl)-5-ethenyl-6-isopropoxycarbon-yl-pyrimidine] | 20% | 40% | 20% | 20% | 0% | 80% | 70% | 100% | 40% | 70% | 30% | 100% | – |
| C=Cc1c(N)nc(-c2ccc(Cl)c(N(C)C)c2F)nc1C(=O)OCCC [Compound 33-316] | 70% | 90% | 60% | 90% | 10% | 80% | 90% | 100% | 70% | 100% | 40% | 90% | – |
| C=Cc1c(N)nc(-c2ccc(Cl)c(N(C)C)c2F)nc1C(=O)OCC(C)C [Compound 33-326, 4-Amino-2-(4-chloro-3-dimethylamino-2-fluorophenyl)-5-ethenyl-6-(2-methylpropoxy) carbonyl-pyrimidine] | 20% | 60% | 20% | 40% | 10% | 60% | 40% | 100% | 20% | 80% | 50% | 90% | – |
| C=Cc1c(N)nc(-c2ccc(Cl)c(N(C)C)c2F)nc1C(=O)OCc1ccccc1 [Compound 33-336, 4-Amino-2-(4-chloro-3-dimethylamino-2-fluorophenyl)-5-ethenyl-6-phenylmethoxy-carbonyl-pyrimidine] | 80% | 100% | 70% | 90% | 20% | 80% | 90% | 100% | 90% | 90% | 40% | 90% | – |
| C=Cc1c(N)nc(-c2ccc(Cl)c(N(C)C)c2F)nc1C(=O)OCCCC [Compound 33-391] | 90% | 100% | 70% | 100% | 20% | 100% | 90% | 100% | 70% | 90% | 80% | 80% | – |
| C=Cc1c(N)nc(-c2ccc(Cl)c(N(C)C)c2F)nc1C(=O)OCCCCCCCC [Compound 33-392] | – | – | – | – | – | – | – | – | – | – | – | – | Percentage damage SETFA, pre-emergence (Setaria faberi (SETFA) [1]): 90%; Percentage damage AMARE, pre-emergence [2]: 100%; Percentage damage ALOMY, pre-emergence [3]: 70%; Percentage damage ECHCG, pre-emergence [4]: 100%; Percentage damage IPOHE, pre-emergence [5]: 0%; Percentage damage SOLNI, pre-emergence (Solanum nigrum (SOLNI) [6]): 80%; Percentage damage SETFA, post-emergence (Setaria faberi (SETFA) [7]): 60%; Percentage damage AMARE, post-emergence [8]: 100%; Percentage damage ALOMY, post-emergence [9]: 70%; Percentage damage ECHCG, post-emergence [10]: 80%; Percentage damage IPOHE, post-emergence [11]: 80%; Percentage damage SOLNI, post-emergence (Solanum nigrum (SOLNI) [12]): 90% |
| C=Cc1c(N)nc(-c2ccc(Cl)c(N(C)C)c2F)nc1C(=O)OCC(CC)CCCC (stereo not drawn) [Compound 33-393, 4-Amino-2-(4-chloro-3-dimethylamino-2-fluorophenyl)-5-ethenyl-6-(2-ethylhexyloxy) carbonyl-pyrimidine] | 0% | 20% | 0% | 0% | 0% | 20% | 0% | 70% | 0% | 20% | 70% | 70% | – |
